Laboratory results reported in US9169240B2, “Ketone linked benzothiazole inhibitors of endothelial lipase” (BRISTOL-MYERS SQUIBB COMPANY, priority 2012, dated 2015).

Target: Endothelial lipase (EL) (Homo sapiens (Human), UniProt Q9Y5X9)
Test: Endothelial lipase (EL) activity assay with fluorescent substrate A10070 in DMPG vesicles
Format: biochemical
Experimental: Endothelial lipase activity was measured using a fluorescent substrate, A10070, (Invitrogen, CA) doped into an artificial vesicle containing DMPG (Avanti Polar Lipids) as the excipient. Vesicles were prepared by combining 285 μL of 1 mM DMPG in a 1:1 mixture of MeOH and CHCl3 with 15 μL of 1 mM A10070 in a 1:1 mixture of MeOH and CHCl3. The mixture was dried under nitrogen and resuspended in 150 μL of 50 mM HEPES pH 8.0 buffer containing 100 mM NaCl and 0.2 mM EDTA. The sample was allowed to sit at rt for 15 min and then was sonicated 3×4 mins on ice with a Branson Sonicator using duty cycle 1. This preparation provides vesicles with a mole fraction of 0.05 for the FRET substrate.
The enzymatic assay was measured using white, opaque 96-well half area plates. Each well contained 60 μL of assay buffer (50 mM HEPES pH 8.0, 50 mM NaCl and 1 mM CaCl2) and 2 ul of a DMSO solution containing compound of interest. Conditioned media obtained from HT-1080 cells, which were transformed by RAGE technology (Athersys) to overexpress endogenous EL, was added and the reaction was allowed to incubate for 20 min at 37° C. with gentle agitation. The reaction was started by the addition of 20 μL of a 1:4 dilution of vesicles. The final total reaction volume was 100 μL. The reaction rates were measured on a Gemini plate reader with an excitation wavelength of 488 nm and an emission of 530 nm. Readings were taken every 20 seconds for 10 min with agitation between each reading. The slope of the linear portion of the readout was used to calculate the rate of the reaction.

Chain of Endothelial lipase (EL) (Q9Y5X9 21-500): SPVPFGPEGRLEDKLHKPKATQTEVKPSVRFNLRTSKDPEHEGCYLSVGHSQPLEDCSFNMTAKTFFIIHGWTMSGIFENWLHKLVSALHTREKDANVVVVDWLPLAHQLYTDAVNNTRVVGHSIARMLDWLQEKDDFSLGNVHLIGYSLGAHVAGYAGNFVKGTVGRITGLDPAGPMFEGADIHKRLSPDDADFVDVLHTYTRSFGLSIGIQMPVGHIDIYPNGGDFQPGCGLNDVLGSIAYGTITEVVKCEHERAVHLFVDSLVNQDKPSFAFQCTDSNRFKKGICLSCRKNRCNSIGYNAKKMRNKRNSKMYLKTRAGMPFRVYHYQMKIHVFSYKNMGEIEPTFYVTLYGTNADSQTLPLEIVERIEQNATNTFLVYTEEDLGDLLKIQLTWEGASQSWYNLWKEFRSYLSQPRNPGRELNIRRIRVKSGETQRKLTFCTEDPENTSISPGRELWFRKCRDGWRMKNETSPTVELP

| Compound | IC50 [nM] |
| --- | --- |
| O=C(c1nnc(C2CCN(c3ccc(C(F)(F)F)cc3)CC2)o1)c1nc2ccc(-c3ccccc3)cc2s1 [Example 13, (6-phenylbenzo[d]thiazol-2-yl)(5-(1-(4-(trifluoromethyl)phenyl)piperidin-4-yl)-1,3,4-oxadiazol-2-yl)methanone] | < 10 |
| COc1ccc(CNc2nnc(C(=O)c3nc4ccc(-c5ccccc5)cc4s3)o2)c(OC)c1 [Example 69] | 310 |
| CC(C)(C)OC(=O)N1CCC(CCc2nnc(C(=O)c3nc4ccc(-c5ccc(F)cc5)cc4s3)o2)CC1 [Example 15, tert-butyl 4-(2-(5-(6-(4-fluorophenyl)benzo[d]thiazole-2-carbonyl)-1,3,4-oxadiazol-2-yl)ethyl)piperidine-1-carboxylate] | < 10 |
| O=C(c1nnc(CCc2ncc(-c3ccccc3)o2)o1)c1nc2ccc(-c3ccccc3)cc2s1 [Example 9, (6-phenylbenzo[d]thiazol-2-yl)(5-(2-(5-phenyloxazol-2-yl)ethyl)-1,3,4-oxadiazol-2-yl)methanone] | < 10 |
| O=C(c1nnc(C2CCN(Cc3ccc(OC(F)(F)F)cc3)CC2)o1)c1nc2ccc(-c3ccccc3)cc2s1 [Example 23, (6-Phenylbenzo[d]thiazol-2-yl)(5-(1-(4-(trifluoromethoxy)benzyl)piperidin-4-yl)-1,3,4-oxadiazol-2-yl)methanone] | < 10 |
| O=C(c1nnc(C2CCS(=O)(=O)N2)o1)c1nc2ccc(-c3ccccc3)cc2s1 (stereo not drawn) [Example 11, (5-(1,1-dioxidoisothiazolidin-3-yl)-1,3,4-oxadiazol-2-yl)(6-phenylbenzo[d]thiazol-2-yl)methanone] | < 10 |
| O=C(c1nnc(N(Cc2nnc(C3CC3)o2)[C@H]2CCNC2=O)o1)c1nc2ccc(-c3ccccc3)cc2s1 [Example 85, (S)-3-(((5-Cyclopropyl-1,3,4-oxadiazol-2-yl)methyl)(5-(6-phenylbenzo[d]thiazole-2-carbonyl)-1,3,4-oxadiazol-2-yl)amino)pyrrolidin-2-one] | 35 |
| CC1(Cc2nnc(C(=O)c3nc4ccc(-c5ccccc5)cc4s3)o2)NC(=O)NC1=O (stereo not drawn) [Example 33, 5-methyl-5-((5-(6-phenylbenzo[d]thiazole-2-carbonyl)-1,3,4-oxadiazol-2-yl)methyl)-imidazol-idine-2,4-dione] | 21 |
| O=C(c1nnc(NCCc2cccnc2)o1)c1nc2ccc(-c3ccccc3)cc2s1 [Example 76, (6-phenylbenzo[d]thiazol-2-yl)(5-((2-(pyridin-3-yl)ethyl)amino)-1,3,4-oxadiazol-2-yl)methanone] | 36 |
| CC(C)(C)CN1CC(c2nnc(C(=O)c3nc4ccc(-c5ccccc5)cc4s3)o2)C1 [Example 42] | 20 |
| CC(C)(C)OC(=O)N1CCC(c2nnc(C(=O)c3nc4ccc(-c5ccccc5)cc4s3)o2)CC1 [Example 20, tert-butyl 4-(5-(6-phenylbenzo[d]thiazole-2-carbonyl)-1,3,4-oxadiazol-2-yl)piperidine-1-carboxylate] | < 10 |
| CN1CCC(Nc2nnc(C(=O)c3nc4ccc(-c5ccccc5)cc4s3)o2)C1=O (stereo not drawn) [Example 71, 1-methyl-3-((5-(6-phenylbenzo[d]thiazole-2-carbonyl)-1,3,4-oxadiazol-2-yl)amino)pyrrolidin-2-one] | 22 |
| NS(=O)(=O)CCNc1nnc(C(=O)c2nc3ccc(-c4ccccc4)cc3s2)o1 [Example 72, 2-((5-(6-phenylbenzo[d]thiazole-2-carbonyl)-1,3,4-oxadiazol-2-yl)amino)ethanesulfonamide] | 88 |
| COc1ccc(CCNc2nnc(C(=O)c3nc4ccc(-c5ccc(F)cc5)cc4s3)o2)cc1 [Example 62, (6-(4-fluorophenyl)benzo[d]thiazol-2-yl)(5-((4-methoxyphenethyl)amino)-1,3,4-oxadiazol-2-yl)methanone] | 240 |
| CC1(Cc2nnc(C(=O)c3nc4ccc(-c5ccccc5)cc4s3)o2)NC(=O)NC1=O (stereo not drawn) [Example 32, 5-methyl-5-((5-(6-phenylbenzo[d]thiazole-2-carbonyl)-1,3,4-oxadiazol-2-yl)methyl)-imidazol-idine-2,4-dione] | < 10 |
| CC(C)(C)OC(=O)N1CCC(c2nnc(C(=O)c3nc4ccc(-c5ccc(F)cc5)cc4s3)o2)CC1 [Example 18, tert-butyl 4-(5-(6-(4-fluorophenyl)benzo[d]thiazole-2-carbonyl)-1,3,4-oxadiazol-2-yl)piperidine-1-carboxylate] | < 10 |
| O=C(c1nnc(NCCc2ccncc2)o1)c1nc2ccc(-c3ccccc3)cc2s1 [Example 73, (6-phenylbenzo[d]thiazol-2-yl)(5-((2-(pyridin-4-yl)ethyl)amino)-1,3,4-oxadiazol-2-yl)methanone] | 180 |

| Compound | IC50 [nM] |
| --- | --- |
| O=C(c1nnc(N2CCN(c3ccc(C(F)(F)F)cc3)CC2)o1)c1nc2ccc(-c3ccccc3)cc2s1 [Example 88, (6-Phenylbenzo[d]thiazol-2-yl)(5-(4-(4-(trifluoromethyl)phenyl)piperazin-1-yl)-1,3,4-oxadiazol-2-yl)methanone] | 494 |
| CN(c1nnc(C(=O)c2nc3ccc(-c4ccccc4)cc3s2)o1)[C@H]1CCNC1=O [Example 86, (S)-3-(Methyl(5-(6-phenylbenzo[d]thiazole-2-carbonyl)-1,3,4-oxadiazol-2-yl)amino)pyrrolidin-2-one] | 101 |
| NC(=O)[C@@H](CCC(F)(F)F)Nc1nnc(C(=O)c2nc3ccc(-c4ccccc4)cc3s2)o1 [Example 75, (R)-5,5,5-trifluoro-2-((5-(6-phenylbenzo[d]thiazole-2-carbonyl)-1,3,4-oxadiazol-2-yl)amino) pentanamide] | 28 |
| O=C(c1nnc(N[C@H](CCO)C(=O)O)o1)c1nc2ccc(-c3ccccc3)cc2s1 [Example 68, (R)-4-hydroxy-2-((5-(6-phenylbenzo[d]thiazole-2-carbonyl)-1,3,4-oxadiazol-2-yl)amino)butanoic acid] | 27 |
| O=C(c1nnc(C2CCN(c3ncccn3)CC2)o1)c1nc2ccc(-c3ccccc3)cc2s1 [Example 7, (6-phenylbenzo[d]thiazol-2-yl)(5-(1-(pyrimidin-2-yl)piperidin-4-yl)-1,3,4-oxadiazol-2-yl)methanone] | < 10 |
| COc1nc(-c2nnc(C(=O)c3nc4ccc(-c5ccccc5)cc4s3)o2)c(O)c(=O)[nH]1 [Example 47, 5-Hydroxy-2-methoxy-6-(5-(6-phenylbenzo[d]thiazole-2-carbonyl)-1,3,4-oxadiazol-2-yl)pyrimidin-4(3H)-one] | 19 |
| O=C(c1nnc(N[C@H]2CCNC2=O)o1)c1nc2c(F)cc(-c3ccccc3)cc2s1 [Example 55, (S)-3-((5-(4-fluoro-6-phenylbenzo[d]thiazole-2-carbonyl)-1,3,4-oxadiazol-2-yl)amino)pyrrolidin-2-one] | 10 |
| CC1(Cc2nnc(C(=O)c3nc4ccc(-c5ccccc5)cc4s3)o2)NC(=O)N(CC(F)(F)F)C1=O (stereo not drawn) [Example 38, 5-methyl-5-((5-(6-phenylbenzo[d]thiazole-2-carbonyl)-1,3,4-oxadiazol-2-yl)methyl)-3-(2,2,2-trifluoro-ethyl)imidazol-idine-2,4-dione] | 11 |
| COC(=O)N[C@H]1CC[C@H](c2nnc(C(=O)c3nc4ccc(-c5ccccc5)cc4s3)o2)CC1 [Example 6, methyl ((1R,4R)-4-(5-(6-phenylbenzo[d]thiazole-2-carbonyl)-1,3,4-oxadiazol-2-yl)cyclohexyl)carbamate] | 99 |
| CC1(Cc2nnc(C(=O)c3nc4ccc(-c5ccc(F)cc5)cc4s3)o2)NC(=O)NC1=O (stereo not drawn) [Example 35, 5-((5-(6-(4-fluoro-phenyl)benzo[d]thiazole-2-carbonyl)-1,3,4-oxadiazol-2-yl)methyl)-5-methyl-imidazolidine-2,4-dione] | < 10 |
| CC(C)(C)OC(=O)CNc1nnc(C(=O)c2nc3ccc(-c4ccccc4)cc3s2)o1 [Example 67, tert-butyl 2-((5-(6-phenylbenzo[d]thiazole-2-carbonyl)-1,3,4-oxadiazol-2-yl)amino)acetate] | 130 |
| O=C(c1nnc(N(CC(F)(F)F)[C@H]2CCNC2=O)o1)c1nc2ccc(-c3ccccc3)cc2s1 [Example 84, (S)-3-((5-(6-Phenylbenzo[d]thiazole-2-carbonyl)-1,3,4-oxadiazol-2-yl)(2,2,2-trifluoroethyl)amino)pyrrolidin-2-one] | < 10 |
| O=C(Cc1nnc(C(=O)c2nc3ccc(-c4ccccc4)cc3s2)o1)NC1CC1 [Example 50, N-Cyclopropyl-2-(5-(6-phenylbenzo[d]thiazole-2-carbonyl)-1,3,4-oxadiazol-2-yl)acetamide] | < 10 |
| O=C(c1nnc(NCCc2ccccc2)o1)c1nc2ccc(-c3ccc(F)cc3)cc2s1 [Example 59, (6-(4-fluorophenyl)benzo[d]thiazol-2-yl)(5-(phenethylamino)-1,3,4-oxadiazol-2-yl)methanone] | 49 |
| O=C(c1nnc(N[C@H]2CCN(CC(F)(F)F)C2=O)o1)c1nc2ccc(-c3ccccc3)cc2s1 [Example 91, (S)-3-((5-(6-Phenylbenzo[d]thiazole-2-carbonyl)-1,3,4-oxadiazol-2-yl)amino)-1-(2,2,2-trifluoroethyl)pyrrolidin-2-one] | 490 |
| O=C(c1nnc(CC2CCNC2=O)o1)c1nc2ccc(-c3ccccc3)cc2s1 (stereo not drawn) [Example 1] | < 10 |
